Laboratory results as given in patent US20240294479A1, “POLYMORPHS OF 2-(3,5-DICHLOROPHENYL)-L,3-BENZOXAZOLE-6-CARBOXYLIC ACID” (HONOUR LAB LIMITED, priority 2021, published 2024).
≈ marks a conversion by molar mass, not a printed value.

Tests used:
[1] = Solubility of Tafamidis crystalline forms in water at different pH; format: physicochemical
Method: However the crystalline Forms of the present invention has water solubility greater than or equal to 3 μg/mL at pH 5 and below.
The solubility of Tafamidis crystallin Form HN3 in water at different pH is as follows: […]

[2] = at pH 5 and below; EMEA scientific discussion; cited from earlier work

| solubility ([1]; pH 3, aqueous buffer) | solubility ([1]; pH 4, aqueous buffer) | solubility ([1]; pH 5, aqueous buffer) | Structure (SMILES) | water solubility [2] |
| --- | --- | --- | --- | --- |
| 3 µg/mL (≈ 9.74 µM) | 3 µg/mL (≈ 9.74 µM) | 3 µg/mL (≈ 9.74 µM) | O=C(O)c1ccc2nc(-c3cc(Cl)cc(Cl)c3)oc2c1 [Form HN3, 2-(3,5-dichlorophenyl)-1,3-benzoxazole-6-carboxylic acid] |  |
|  |  |  | O=C(O)c1ccc2nc(-c3cc(Cl)cc(Cl)c3)oc2c1 [Tafamidis (Form 1), 2-(3,5-dichlorophenyl)-1,3-benzoxazole-6-carboxylic acid] | < 2 µg/mL |
